Earlier results in patent US20130137766A1, “Compound Used to Prevent Diseases Caused by Aquaporin Deficiency” (FU-JEN CATHOLIC UNIVERSITY, priority 2010, published 2013).

Tested on: AQP-3
Conditions: EGF-treated groups

EGF: epidermal growth factor, literature comparator (Cong Cao et al.) (NSDSECPLSHDGYCLHDGVCMYIEALDKYACNCVVGYIGERCQYRDLKWWELR; UniProt P01133 971-1023, looked up)
expression of AQP-3: significantly increased
wound healing: wound healing was facilitated
